In patent US12622894B2, “Pharmaceutical compositions and intravitreal drug delivery systems for the treatment of ocular diseases” (Perfuse Therapeutics, Inc., priority 2021, dated 2026):

What was measured:
[1] = Slurry conversion of crystalline forms in isopropanol and water, XRPD analysis; type: physicochemical
Protocol: In an alternate method, 150 mg of Edonentan (Form 3) was added to a mixture of isopropanol and water (1 mL and 2 mL, respectively). The resulting slurry was stirred at 15° C. for 48 hours and then filtered.
In an alternate method, 200 mg of Edonentan (Form 1) was added to a mixture of isopropanol and water (1.3 mL and 2.6 mL, respectively). The resulting solution was heated to 80° C. and stirred for 24 h, then cooled and filtered.

[2] = pH 7.4 in 2 mg/mL melanin solution; cited from earlier work
[3] = In vitro melanin binding assay with synthetic melanin; settings: 200 μM; melanin 1 mg/mL
Protocol: A concentration of 200 μM chloroquine was used as a positive control.

[4] = cited from earlier work

Cc1onc(NS(=O)(=O)c2ccccc2-c2ccc(-c3ncco3)cc2CN(C)C(=O)CC(C)(C)C)c1C [Form 4]
relative thermodynamic stability of crystalline forms ([1]; Form 1 in isopropanol and water, 80° C., 24 h): more thermodynamically stable than Form 1 | relative thermodynamic stability of crystalline forms ([1]; slurry of Form 3 in isopropanol and water, 15° C., 48 hours): more thermodynamically stable than Form 3

Cc1onc(NS(=O)(=O)c2ccccc2-c2ccc(-c3ncco3)cc2CN(C)C(=O)CC(C)(C)C)c1C [Form 1]
Solubility pH 7.0 Phosphate Buffer: 264 μg/mL

CCN(CC)CCCC(C)Nc1ccnc2cc(Cl)ccc12 (centres unmarked) [chloroquine]
bound to melanin, literature values [2]: 92-99.6 % bound | binding to melanin (% bound) [3]: 99.5 % bound

Cc1onc(NS(=O)(=O)c2ccccc2-c2ccc(-c3ncco3)cc2CN(C)C(=O)CC(C)(C)C)c1C [Form 3]
Solubility pH 7.0 Phosphate Buffer: 251 μg/mL

Cc1onc(NS(=O)(=O)c2ccccc2-c2ccc(-c3ncco3)cc2CN(C)C(=O)CC(C)(C)C)c1C [Edonentan, N-[[2′-[[(4,5-dimethyl-3-isoxazolyl)amino]sulfonyl]-4-(2-oxazolyl)[1,1′-biphenyl]-2-yl]methyl]-N,3,3-trimethylbutanamide]
oral Tmax [4]: 24 min

Cc1onc(NS(=O)(=O)c2ccccc2-c2ccc(-c3ncco3)cc2CN(C)C(=O)CC(C)(C)C)c1C [Form 2]
Solubility pH 7.0 Phosphate Buffer: 35 μg/mL
